Earlier results in patent publication US20150246027A1, “FIXED DOSE PHARMACEUTICAL COMPOSITION COMPRISING DEFERASIROX AND DEFERIPRONE” (CIPLA LIMITED, priority 2012, published 2015).
≈ marks a conversion by molar mass, not a printed value. Entries after “also recorded” stand apart in the source; their conditions may differ.

Key:
[1] = for solubility in water (in words): water / aqueous media
[2] = oral; majority excreted as inactive glucuronide metabolite
[3] = Bio-pharmaceutics Classification System

| SMILES | solubility in water ([1]; water) | solubility in water (in words) [1] | ingested dose excreted as the active form [2] | BCS class [3] | permeability (in words) | solubility at pH 6.8 (in words) ([1]; pH 6.8, until the buffer strength is altered) |
| --- | --- | --- | --- | --- | --- | --- |
| Cc1c(O)c(=O)ccn1C [Deferiprone, 3-hydroxy-1,2-dimethylpyridin-4-one] | 12.95 mg/mL (≈ 93.1 mM) | sparingly soluble | less than 10% |  |  |  |
| O=C(O)c1ccc(-n2nc(-c3ccccc3O)nc2-c2ccccc2O)cc1 [Deferasirox, 4-[3,5-bis(2-hydroxyphenyl)-[1,2,4]triazol-1-yl]enzoic acid] |  | highly water-insoluble; also recorded: practically insoluble |  | Class II | good permeability | insoluble |
